Reference: patent publication US9149465B2, “Isoxazolines as inhibitors of fatty acid amide hydrolase” (Infinity Pharmaceuticals, Inc., priority 2009, dated 2015)

Target: T1, human FAAH (Homo sapiens, UniProt O00519)
T1 construct: host or cells: COS-7 cells, transient transfection; 13,000 g membrane fraction solubilised in 1% Triton X-100
T1 sequence (O00519 1-579): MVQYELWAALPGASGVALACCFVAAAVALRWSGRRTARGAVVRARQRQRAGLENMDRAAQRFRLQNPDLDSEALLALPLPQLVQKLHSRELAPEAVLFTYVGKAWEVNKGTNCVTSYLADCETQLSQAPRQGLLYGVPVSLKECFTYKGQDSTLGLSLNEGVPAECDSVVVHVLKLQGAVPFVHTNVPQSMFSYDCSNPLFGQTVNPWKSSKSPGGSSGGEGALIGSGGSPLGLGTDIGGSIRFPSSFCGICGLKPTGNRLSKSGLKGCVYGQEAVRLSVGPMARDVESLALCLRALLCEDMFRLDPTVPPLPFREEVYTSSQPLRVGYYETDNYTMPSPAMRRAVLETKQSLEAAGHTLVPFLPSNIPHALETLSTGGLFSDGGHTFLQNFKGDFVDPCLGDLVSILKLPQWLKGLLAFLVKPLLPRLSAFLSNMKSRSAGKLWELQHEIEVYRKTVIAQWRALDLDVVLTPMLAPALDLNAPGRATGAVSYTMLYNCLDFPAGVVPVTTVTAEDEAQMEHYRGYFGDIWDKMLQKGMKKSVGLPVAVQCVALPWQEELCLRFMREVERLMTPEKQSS
Experiment: Inhibition of human FAAH (AMC arachidonoyl amide fluorescence assay)
Type: biochemical
Conditions: inhibitor preincubated 30 minutes at room temperature; 20 μM AMC arachidonoyl amide; 4 hours; read-out: Activity (Ki, inhibitors of human FAAH)
Summary of the method: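 Solubilized membrane fraction from COS-7 cells transiently expressing human FAAH (0.05 mg/mL final) preincubated 30 min at room temperature with 3-fold serially diluted inhibitor, then reacted 4 h at room temperature with 20 μM AMC arachidonoyl amide. Stopped with α-ketoheterocycle; fluorescence read. Ki from single-site competitive fit, Km fixed at 12 μM.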

`CS(=O)(=O)c1ccc(OC2=NOC(c3ccc(Oc4ccccc4)cc3)C2)cn1` (racemic) [I-197] and `CS(=O)(=O)c1ccc(OC2=NO[C@@H](c3ccc(C(=O)NCc4ccccc4)cc3)C2)cn1` (racemic) [I-214] cannot be ordered by Ki: no more than 100 nM for the first, no more than 100 nM for the second.

`CC1(c2ccc(OC(F)(F)F)cc2)CC(Oc2ccc(-n3cccn3)nc2)=NO1` (racemic) [I-198] and `Cn1nccc1-c1ccc(OC2=NOC(C)(c3ccc(OC(F)(F)F)cc3)C2)cn1` (racemic) [I-241] cannot be ordered by Ki: no more than 100 nM for the first, no more than 100 nM for the second.

Going from `Cc1noc(-c2cccc(OC3=NOC(c4ccc(OC(F)(F)F)cc4)C3)c2)n1` (racemic) [I-199] to `Cc1nnc(-c2cccc(OC3=NOC(c4ccc(OC(F)(F)F)cc4)C3)c2)o1` (racemic) [I-223], the Ki falls from no less than 1000 nM to no more than 100 nM. The second binds more tightly here.

`Cn1nnc(-c2ccc(OC3=NOC(c4ccc(OC(F)(F)F)cc4)C3)cc2)n1` (racemic) [I-200] and `FC(F)(F)Oc1ccc(C2CC(Oc3ccc(-c4nnco4)cc3)=NO2)cc1` (racemic) [I-201] cannot be ordered by Ki: 100 to 1000 nM for the first, no more than 100 nM for the second.

`O=C(c1ccc([C@H]2CC(Br)=NO2)cc1)N1CCOCC1` (racemic) [I-202] and `O=C(c1ccc([C@H]2CC(Br)=NO2)cc1)N1CCCC1` (racemic) [I-209] cannot be ordered by Ki: 100 to 1000 nM for the first, no more than 100 nM for the second.

`CN(C)C(=O)c1ccc([C@H]2CC(Br)=NO2)cc1` (racemic) [I-203] and `CNC(=O)c1ccc([C@H]2CC(Br)=NO2)cc1` (racemic) [I-204] cannot be ordered by Ki: no more than 100 nM for the first, 100 to 1000 nM for the second.

`O=S(=O)(c1ccc([C@H]2CC(Br)=NO2)cc1)N1CCOCC1` (racemic) [I-205] and `O=S(=O)(c1ccc([C@H]2CC(Br)=NO2)cc1)N1CCCC1` (racemic) [I-211] cannot be ordered by Ki: no more than 100 nM for the first, no more than 100 nM for the second.

`CN(C)S(=O)(=O)c1ccc([C@H]2CC(Br)=NO2)cc1` (racemic) [I-206] and `CNS(=O)(=O)c1ccc([C@H]2CC(Br)=NO2)cc1` (racemic) [I-207] cannot be ordered by Ki: no more than 100 nM for the first, no more than 100 nM for the second.

`O=C(c1ccc([C@H]2CC(Br)=NO2)cc1)N1CCCCC1` (racemic) [I-208] and `O=S(=O)(c1ccc([C@H]2CC(Br)=NO2)cc1)N1CCCCC1` (racemic) [I-210] cannot be ordered by Ki: no more than 100 nM for the first, no more than 100 nM for the second.

`CN(C)C(=O)c1ccc(C2CC(Oc3ccc(S(C)(=O)=O)nc3)=NO2)cc1` (racemic) [I-212] and `CN(C)S(=O)(=O)c1ccc([C@H]2CC(Oc3ccc(S(C)(=O)=O)nc3)=NO2)cc1` (racemic) [I-213] cannot be ordered by Ki: 100 to 1000 nM for the first, no more than 100 nM for the second.

`O=C(NCc1ccccc1)c1ccc([C@H]2CC(Oc3ccc(C(=O)O)nc3)=NO2)cc1` (racemic) [I-215] and `O=C(OCc1ccccc1)c1ccc(C2CC(Br)=NO2)cc1` (single isomer, unassigned) [I-21] cannot be ordered by Ki: 100 to 1000 nM for the first, no more than 100 nM for the second.

`FC(F)(F)c1ccc(C2CC(Oc3ccc(Br)nc3)=NO2)cc1` (racemic) [I-216] and `CSc1ccc(OC2=NOC(c3ccc(C(F)(F)F)cc3)C2)cn1` (racemic) [I-238] cannot be ordered by Ki: 100 to 1000 nM for the first, no more than 100 nM for the second.

`FC(F)(F)c1ccc(C2CC(Oc3cccc(-c4nnco4)c3)=NO2)cc1` (racemic) [I-217] and `FC(F)(F)Oc1ccc(C2CC(Oc3cccc(-c4nnco4)c3)=NO2)cc1` (racemic) [I-258] cannot be ordered by Ki: no more than 100 nM for the first, no more than 100 nM for the second.

`Cn1cc(-c2ccc(OC3=NOC(c4ccc(OC(F)(F)F)cc4)C3)cn2)cn1` (racemic) [I-218] and `Cn1cc(-c2ccc(OC3=NOC(c4ccc(C(F)(F)F)cc4)C3)cn2)cn1` (racemic) [I-219] cannot be ordered by Ki: no more than 100 nM for the first, no more than 100 nM for the second.

`CS(=O)(=O)NC(=O)c1ccc(OC2=NOC(c3ccc(OC(F)(F)F)cc3)C2)cn1` (racemic) [I-220] and `FC(F)(F)Oc1ccc(C2CC(Oc3ccc(-c4cnn[nH]4)nc3)=NO2)cc1` (racemic) [I-236] cannot be ordered by Ki: no more than 100 nM for the first, no more than 100 nM for the second.

First: FC(F)(F)Oc1ccc(C2CC(Oc3cccc(-n4cnnc4)c3)=NO2)cc1 (racemic) [I-221]
Second: Fc1ccc(OC2=NOC(c3ccc(OC(F)(F)F)cc3)C2)cc1-c1nnco1 (racemic) [I-226]
The Ki of the first is higher: no less than 1000 nM for the first, no more than 100 nM for the second. The second binds more tightly here.

`Cc1nnc(-c2cccc(OC3=NOC(C)(c4ccc(OC(F)(F)F)cc4)C3)c2)o1` (racemic) [I-222] and `Cc1nnc(-c2cncc(OC3=NOC(C)(c4ccc(OC(F)(F)F)cc4)C3)c2)o1` (racemic) [I-229] cannot be ordered by Ki: no more than 100 nM for the first, no more than 100 nM for the second.

`Cc1nnc(-c2cc(F)cc(OC3=NOC(c4ccc(OC(F)(F)F)cc4)C3)c2)o1` (racemic) [I-224] and `Fc1cc(OC2=NOC(c3ccc(OC(F)(F)F)cc3)C2)cc(-c2nnco2)c1` (racemic) [I-225] cannot be ordered by Ki: no more than 100 nM for the first, no more than 100 nM for the second.

`CC1(c2ccc(OC(F)(F)F)cc2)CC(Oc2ccc(F)c(-c3nnco3)c2)=NO1` (racemic) [I-227] and `CC1(c2ccc(OC(F)(F)F)cc2)CC(Oc2cccc(-c3nnco3)c2)=NO1` (racemic) [I-232] cannot be ordered by Ki: no more than 100 nM for the first, no more than 100 nM for the second.

`CC1(c2ccc(OC(F)(F)F)cc2)CC(Oc2cncc(-c3nnco3)c2)=NO1` (racemic) [I-228] and `CC1(c2ccc(OC(F)(F)F)cc2)CC(Oc2cncc(-c3n[nH]c(=O)o3)c2)=NO1` (racemic) [I-231] cannot be ordered by Ki: no more than 100 nM for the first, 100 to 1000 nM for the second.

`FC(F)(F)Oc1ccc(C2CC(Oc3cncc(-c4nnco4)c3)=NO2)cc1` (racemic) [I-230] and `Cc1nnc(-c2ccc(OC3=NOC(c4ccc(C(F)(F)F)cc4)C3)cn2)o1` (racemic) [I-259] cannot be ordered by Ki: no more than 100 nM for the first, no more than 100 nM for the second.

`CN(C)S(=O)(=O)c1cccc(OC2=NOC(C)(c3ccc(OC(F)(F)F)cc3)C2)c1` (racemic) [I-233] and `CN(C)S(=O)(=O)c1ccc(OC2=NOC(C)(c3ccc(OC(F)(F)F)cc3)C2)cc1` (racemic) [I-235] cannot be ordered by Ki: no less than 1000 nM for the first, no less than 1000 nM for the second.

`CC1(c2ccc(OC(F)(F)F)cc2)CC(Oc2ccc(S(C)(=O)=O)cc2)=NO1` (racemic) [I-234] and `CSc1ccc(OC2=NOC(C)(c3ccc(OC(F)(F)F)cc3)C2)cn1` (racemic) [I-261] cannot be ordered by Ki: 100 to 1000 nM for the first, no more than 100 nM for the second.

`CS(=O)(=O)c1ccc(OC2=NO[C@@H](c3ccc(Br)cc3)C2)cn1` (racemic) [I-237] and `BrC1=NOC(c2ccc(Oc3cccnc3)cc2)C1` (single isomer, unassigned) [I-12] cannot be ordered by Ki: no more than 100 nM for the first, no more than 100 nM for the second.

`Cn1cc(-c2ccc(OC3=NOC(C)(c4ccc(OC(F)(F)F)cc4)C3)cn2)cn1` (racemic) [I-240] and `CC1(c2ccc(OC(F)(F)F)cc2)CC(Oc2ccc(-c3ccn[nH]3)nc2)=NO1` (racemic) [I-242] cannot be ordered by Ki: no more than 100 nM for the first, no more than 100 nM for the second.

`OCCNC1=NOC(c2ccc(Oc3ccccc3)cc2)C1` (racemic) [I-243] and `BrC1=NOC(c2ccc(Oc3ccccc3)cc2)C1` (single isomer, unassigned) [I-10] cannot be ordered by Ki: 100 to 1000 nM for the first, no more than 100 nM for the second.

`CN(CC(=O)O)C1=NOC(c2ccc(Oc3ccccc3)cc2)C1` (racemic) [I-244] and `ClC1=NOC(c2ccc(Oc3ccccc3)cc2)C1` (single isomer, unassigned) [I-17] cannot be ordered by Ki: 100 to 1000 nM for the first, no more than 100 nM for the second.

`O[C@H](CNC1=NOC(c2ccc(Oc3ccccc3)cc2)C1)c1ccccc1` (mixture of isomers) [I-245] and `O[C@@H](CNC1=NOC(c2ccc(OC(F)(F)F)cc2)C1)c1ccccc1` (mixture of isomers) [I-246] cannot be ordered by Ki: no less than 1000 nM for the first, no less than 1000 nM for the second.

`FC(F)(F)Oc1ccc(C2CC(Sc3ccccc3)=NO2)cc1` (racemic) [I-248] and `O=C(O)c1ccc(SC2=NOC(c3ccc(OC(F)(F)F)cc3)C2)cc1` (racemic) [I-251] cannot be ordered by Ki: no less than 1000 nM for the first, no less than 1000 nM for the second.

`[O-][S+](C1=NOC(c2ccc(OC(F)(F)F)cc2)C1)c1ccccc1` (racemic) [I-249] and `O=S(=O)(C1=NOC(c2ccc(OC(F)(F)F)cc2)C1)c1ccccc1` (racemic) [I-250] cannot be ordered by Ki: no less than 1000 nM for the first, no less than 1000 nM for the second.

`CCN(C1=NOC(c2ccc(OC(F)(F)F)cc2)C1)c1ccccc1` (racemic) [I-253] and `CN(C1=NOC(c2ccc(OC(F)(F)F)cc2)C1)c1ccc(C(=O)O)cc1` (racemic) [I-255] cannot be ordered by Ki: no less than 1000 nM for the first, no less than 1000 nM for the second.

First: c1ccc(Oc2ccc(C3CC(N4CCCC4)=NO3)cc2)cc1 (racemic) [I-256]
Second: BrC1=NOC(c2cccc(Oc3ccccc3)c2)C1 (single isomer, unassigned) [I-11]
The Ki of the first is higher: no less than 1000 nM for the first, no more than 100 nM for the second.

`Cn1nc(C(F)(F)F)cc1OC1=NOC(c2ccc(Oc3ccccc3)cc2)C1` (racemic) [I-257] and `BrC1=NOC(c2ccc(-c3nnc(-c4ccccc4)o3)cc2)C1` (single isomer, unassigned) [I-19] cannot be ordered by Ki: 100 to 1000 nM for the first, no more than 100 nM for the second.

`BrC1=NOC(c2ccccc2)C1` (single isomer, unassigned) [I-1] and `Clc1cccc(C2CC(Br)=NO2)c1` (single isomer, unassigned) [I-4] fall in the same range of Ki: 100 to 1000 nM for the first, 100 to 1000 nM for the second.

`Clc1ccccc1C1CC(Br)=NO1` (single isomer, unassigned) [I-5] and `COc1ccccc1C1CC(Br)=NO1` (single isomer, unassigned) [I-8] cannot be ordered by Ki: 100 to 1000 nM for the first, no less than 1000 nM for the second.

`COc1cccc(C2CC(Br)=NO2)c1` (single isomer, unassigned) [I-7] and `BrC1=NOC(c2ccc(Oc3ncccn3)cc2)C1` (single isomer, unassigned) [I-13] cannot be ordered by Ki: 100 to 1000 nM for the first, no more than 100 nM for the second.

`Cc1ccc(Oc2ccc(C3CC(Br)=NO3)cc2)nn1` (single isomer, unassigned) [I-18] gave a Ki of 100 to 1000 nM.
